One data set is described as follows: dissolvability at 25° C. Format: physicochemical. The procedure: As determined, at 25° C., the dissolvability of monofructosyl-β-(2,6)-mangiferin is 350 g/L, and that of bifructosyl-β-(2,6)-mangiferin is 1200 g/L, respectively 3.5×103 times and 1.2×104 times that of mangiferin (0.1 g/L) under the same condition.
The test system of data set [1] is Human chronic myelogenous leukemia cell strain K562. Briefly: K562 cell toxicity test (MTT method). The settings on record: for Average suppression rate (%) / OD value: 48 h; for Average suppression rate (%): K562; for OD value: K562, A490 MTT. Format: cell-based. On the procedure: Human chronic myelogenous leukemia cell strain K562, purchased from the cell bank of Shanghai Cell Research Institute of Chinese Academy of Sciences; mangiferin, purchased from Nanjing Zelang Medical Science and Technology Co., Ltd.; monofructosyl-β (2,6)-mangiferin is prepared with the method described in this invention, with purity over 99% as determined by high performance liquid chromatography. Drug liquid and its storage: weigh 8.44 mg mangiferin powder and dissolve it in 2 mL DMSO to prepare it into 10 mmol/L mangiferin; weigh 11.68 mg monofructosyl-β (2,6)-mangiferin powder and dissolve it in 2 mL DMSO to prepare it into 10 mmol/L monofructosyl-β (2,6)-mangiferin; they are filtered with a 0.22 μm filter, packed in 1000 μL/doff and stored at −20° C., meanwhile, high concentration DMSO is filtered with a 0.22 μm filter for use as control. The K-562 cells are cultured in RPMI-1640 complete culture medium containing inactivated calf serum at volume fraction of 10%, 100 U penicillin and streptomycin, in an incubating box at 37° C., with 5% CO2 and at saturated humidity. Take K-562 cells in logarithmic growing phase, adjust its concentration to 1×10^5/mL, and inoculate them in a 96-hole culture plate, each hole with 90 μL of suspended cell liquid, the experimental group is treated with mangiferin and monofructosyl-β (2,6)-mangiferin at different end concentration (1, 5, 10, 20, 50, 100, 150 and 200 μmol/L), with 10 μL in each hole, the DMSO solvent control group is added with 20 μL PBS containing the corresponding drug solvent, and the blank group is added with 20 μL PBS. For each drug concentration, 6 repeating holes are provided. The culture plate is put back into the cell culture box, add 20 μL MTT (5 mg/mL) solution after 48 h, and after further incubation of 4 h in the culture box, add triple liquid 100 μL into each hole, put it still overnight to allow full dissolution of crystal. Vibrate it with oscillator for 20 min and determine the light absorption at 490 nm with a fully automatic ELISA instrument, and calculate the average suppression rate, the suppression rate (%)=(control group A490−test group A490)/control group A490), the experiment was repeated three times. Relevant analysis and Student t tests in Microsoft Excel 2003 were used, and data are presented in.

In the case of bifructosyl-β-(2,6)-mangiferin, in the data set “dissolvability at 25° C.”, the dissolvability is reported as 1200 g/L.

In “dissolvability at 25° C.”, monofructosyl-β-(2,6)-mangiferin returned a dissolvability of 350 g/L. For the same compound, the “Average suppression rate (%)” value in data set [1] (1 μmol/L) came out at 4.53%; in data set [1] (5 μmol/L), 8.79%; in data set [1] (10 μmol/L) it was 8.19%; in data set [1] (20 μmol/L) it was 8.56%; in data set [1] (50 μmol/L) it was 8.87%; in data set [1] (100 μmol/L) it was 23.19%. For the same compound, the “Average suppression rate (%)” value in data set [1] (150 μmol/L) was determined as 36.53%; in data set [1] (200 μmol/L) it was 41.48%. The OD value in data set [1] (1 μmol/L) is given as 0.982 ± 0.039; in data set [1] (5 μmol/L), 0.938 ± 0.102; in data set [1] (10 μmol/L), 0.944 ± 0.053; in data set [1] (20 μmol/L), 0.941 ± 0.040; in data set [1] (50 μmol/L) it was 0.938 ± 0.041; in data set [1] (100 μmol/L), 0.790 ± 0.098. The OD value is 0.653 ± 0.026 in data set [1] (150 μmol/L) and 0.602 ± 0.021 in data set [1] (200 μmol/L). The “effect on K562 cell proliferation (in words)” value in data set [1] (after acting for 48 h, MTT method) is reported as “can markedly suppress the proliferation”.

Take `O=c1c2cc(O)c(O)cc2oc2cc(O)c([C@@H]3O[C@H](CO)[C@@H](O)[C@H](O)[C@H]3O)c(O)c12` [mangiferin]: the “Average suppression rate (%)” value in data set [1] (1 μmol/L) was 7.74%; in data set [1] (5 μmol/L) it was 8.39%; in data set [1] (10 μmol/L), 10.75%; in data set [1] (20 μmol/L), 3.52%; in data set [1] (50 μmol/L), −3.9%; in data set [1] (100 μmol/L), −16.08%. The entries for the “Average suppression rate (%)” value in data set [1] (150 μmol/L) and in data set [1] (200 μmol/L) were −10.61% and −14.56%, respectively. Further, the OD value in data set [1] (1 μmol/L) was 0.952 ± 0.034; in data set [1] (5 μmol/L), 0.945 ± 0.041; in data set [1] (10 μmol/L), 0.921 ± 0.036; in data set [1] (20 μmol/L), 0.995 ± 0.086; in data set [1] (50 μmol/L), 1.096 ± 0.143; in data set [1] (100 μmol/L) it was 1.198 ± 0.048. For the same compound, the OD value is on record as 1.141 ± 0.049 in data set [1] (150 μmol/L) and 1.182 ± 0.175 in data set [1] (200 μmol/L).

Values taken from patent US8946407B2, “Fructosylated mangiferin and preparation method therefor and use thereof” (priority 2011, dated 2015).
